Columns and labels:
[1] = organism: Mus musculus; experiment: Anti cancer activity was determined as effective dose; type: functional
[2] = Anti cancer activity was determined as lethal dose; type: organism-based; settings: mouse, in vivo

Structure (SMILES)	ED50 [1]	LD50 [2]
CO[C@@]12[C@H](COC(N)=O)C3=C(C(=O)C(C)=C(N)C3=O)N1C[C@@H]1N[C@@H]12 [MITOMYCIN]	4.4 mg/kg	
C=C1C2=C(C(=O)C(C)=C(OC)C2=O)N2C[C@H]3[C@H](N3C)[C@]12OC (some centres not stated) [MITOMYCIN G]	35 mg/kg	22 mg/kg
C=C1C2=C(C(=O)C(C)=C(OC)C2=O)N2C[C@@H]3N[C@@H]3[C@]12OC	7.5 mg/kg	13 mg/kg
C=C1C2=C(C(=O)C(C)=C(OC)C2=O)N2C[C@H]3[C@H](N3C)[C@]12O (some centres not stated) [MITOMYCIN H]	6.8 mg/kg	12 mg/kg
C=C1C2=C(C(=O)C(C)=C(N)C2=O)N2C[C@H]3[C@H](N3C)[C@]12O (some centres not stated) [MITOMYCIN Z]	82 mg/kg	210 mg/kg
COC1=C(C)C(=O)C2=C(C1=O)[C@@H](COC(N)=O)[C@@]1(OC)[C@H]3N[C@H]3CN21 [MITOMYCIN A]	1.1 mg/kg	2.1 mg/kg
C=C1C2=C(C(=O)C(C)=C(N)C2=O)N2C[C@@H]3N[C@@H]3[C@]12OC	18 mg/kg	75 mg/kg
C=C1C2=C(C(=O)C(C)=C(N)C2=O)N2C[C@H]3[C@H](N3C)[C@]12OC (some centres not stated) [MITOMYCIN K]	100 mg/kg	130 mg/kg
CO[C@@]12[C@H](COC(N)=O)C3=C(C(=O)C(C)=C(N)C3=O)N1C[C@H]1[C@@H]2N1C (some centres not stated) [PORFIROMYCIN]	22 mg/kg	57 mg/kg

Source: ChEMBL document CHEMBL1126692, “Structure-activity relationships for mitomycins. Application of the distance and charge analysis method” (J Med Chem, 1993)
